Patent publication EP3797781A1, “USE OF EC-7072 AND SYNERGIC COMPOSITIONS THEREOF IN TREATMENT OF CHRONIC LYMPHOCYTIC LEUKEMIA” (priority 2019, dated 2021)

Tested on: healthy B cells
Assay: Viability of healthy B cells from healthy donors by DiOC6(3)/PI staining
Format: cell-based, human
Settings: 200 nM, 24 hours; PBMCs from healthy donors (n = 20); Figure 1F
Method: Cell viability and apoptosis were evaluated by double-staining with the mitochondrial inner transmembrane potential (ΔΨm)-sensitive dye DiOC6(3) (3,3'-dihexyloxacarbocyanine iodide; Sigma-Aldrich) and the exclusion dye propidium iodide (PI; Immunostep), allowing identification of apoptotic [DiOC6(3)^low PI^-] and dead [PI^+] cells as per Proc. Natl. Acad. Sci. U.S.A. (2014) 111(8):3020-3025 and Methods Mol. Biol. (2016) 1419:1-16. Briefly, PBMCs were resuspended in culture medium containing 20 nM DiOC6(3) and incubated for 30 minutes at 37 °C. Then, PI (1 µg/mL) was added and cells were further incubated for 10 minutes at room temperature (RT). Cells were analyzed by flow cytometry considering DiOC6(3)^+PI^- cells as viable. In some experiments, apoptosis was evaluated by staining with Annexin V/PI. […]
The in vitro cytotoxic activity of EC-7072 against primary CLL cells was assessed by: • (i) incubating PBMCs isolated from patients with CLL (n = 13) following treatment with increasing concentrations of EC-7072 (0 - 400 nM) for 24 hours. Numbers of leukemia cells were evaluated by flow cytometry and normalized to their respective control (DMSO) condition for each individual patient to obtain percentage of leukemia cells (Figure 1A); • (ii) incubating PBMCs from patients with CLL (n = 10) with or without EC-7072 (100-400 nM) for 24 hours. […]

CO[C@@H]([C@@H]1Cc2cc3cc(O[C@H]4C[C@@H](O[C@H]5C[C@@H](O)[C@H](O)[C@@H](C)O5)[C@H](O)[C@@H](C)O4)c(C)c(O)c3c(O)c2C(=O)[C@H]1O[C@H]1C[C@@H](O[C@H]2C[C@@H](O[C@H]3C[C@](C)(O)[C@H](O)[C@@H](C)O3)[C@@H](O)[C@@H](C)O2)[C@H](O)[C@@H](C)O1)[C@@H](O)C(C)=O [EC-7072, mithramycin SK]
viability of healthy B cells: triggered death of normal B cells
